Experimental data taken from patent publication US8569336B2, “Compounds for the treatment of inflammatory disorders” (priority 2008, dated 2013).
Read-outs that look alike come from different tables or passages of the source.

Tests used:
[1] = target: T1, purified catalytic domain of recombinant human TACE (rhTACEc) (Homo sapiens, UniProt P78536, N452Q/S266A); experiment: TACE kinetic assay: cleavage of internally quenched peptide substrate TNF-FRET 2 (Ki); format: biochemical; conditions: TNF-FRET 2 substrate
T1 construct: 6xHis (C); made in house; host or cells: baculovirus/Hi5 insect cells
T1 sequence (P78536 215-477 S266A/N452Q): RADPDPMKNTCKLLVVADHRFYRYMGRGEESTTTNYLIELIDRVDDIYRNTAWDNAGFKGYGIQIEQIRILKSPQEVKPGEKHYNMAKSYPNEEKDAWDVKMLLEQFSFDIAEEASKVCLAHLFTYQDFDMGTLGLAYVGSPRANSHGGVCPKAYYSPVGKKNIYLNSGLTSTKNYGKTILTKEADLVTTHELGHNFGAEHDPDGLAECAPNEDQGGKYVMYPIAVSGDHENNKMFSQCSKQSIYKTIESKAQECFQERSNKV

[2] = tested on: TNF-α production from human whole blood; experiment: Inhibition of TNF-α production from human whole blood (hWBA), LPS stimulated, ELISA; format: cell-based; conditions: Homo sapiens, TNF-α by ELISA, read-out: hWBA (IC50)
[3] = Area under the curve determinations of plasma levels in rats (rrAUC), oral 10 mg/kg; format: in vivo; conditions: rat, read-out: RR AUC (rapid rat AUC, rrAUC)
[4] = 3.5 h, human whole blood diluted 1:1, LPS stimulated, 3.5 h
[5] = LPS-stimulated human whole blood
[6] = human whole blood diluted 1:1, LPS stimulated
[7] = plasma, blood collected 0.5-6 h post-dosing

| SMILES | Ki ([1]; read-out: Ki) [nM] | IC50 [2, 4] [nM] | AUC ([3]; plasma 0.5-6 h post-dosing) [µM·h] | Ki ([1]; Ki) [nM] | IC50 [2, 5] [nM] | AUC ([3]; plasma 0.5-6 h) [µM·h] | IC50 [2, 6] [nM] | AUC [3, 7] [µM·h] |
| --- | --- | --- | --- | --- | --- | --- | --- | --- |
| COc1ccc2c(c1)C(=O)N(C[C@@]1(c3cc4cc(-c5ccncc5)ncc4o3)NC(=O)NC1=O)C2 [Compound 2238] | 0.889 | 628 | 4.86 | – | – | – | – | – |
| COc1ccc2c(c1)C(=O)N(C[C@@]1(c3cc4c(C#N)nccc4o3)NC(=O)NC1=O)C2 [Compound 323] | – | – | – | 0.7 | 1240 | 0.485 | – | – |
| COc1ccc2c(c1)C(=O)N(C[C@@]1(c3cc4cc(C(=O)NCCN(C)C)c(F)cc4o3)NC(=O)NC1=O)C2 [Compound 1273] | 0.59 | 181 | 0.037 | – | – | – | – | – |
| COc1ccc2c(c1)C(=O)N(C[C@@]1(c3cc4nc(-n5ccnc5)ccc4o3)NC(=O)NC1=O)C2 [Compound 2164] | 0.557 | 168 | 0.534 | – | – | – | – | – |
| COc1ccc2c(c1)C(=O)N(C[C@@]1(c3cc4ccc(-c5nnco5)cc4o3)NC(=O)NC1=O)C2 [Compound 2189] | – | 672 | 0.988 | 0.536 | – | – | – | – |
| COc1ccc2c(c1)C(=O)N(C[C@@]1(c3cc4nc(N5C(=O)CCC5C)ccc4o3)NC(=O)NC1=O)C2 (stereo partly drawn) [Compound 2161] | 0.54 | 186 | 4.79 | – | – | – | – | – |
| COc1ccc2c(c1)C(=O)N(C[C@@]1(c3cc4cnc(-c5ccccc5F)cc4o3)NC(=O)NC1=O)C2 [Compound 2234] | 0.527 | 14300 | 127 | – | – | – | – | – |
| COc1ccc2c(c1F)C(=O)N(C[C@@]1(c3cc4cc([C@]5(C)NC(=O)NC5=O)c(F)cc4o3)NC(=O)NC1=O)C2 (single isomer, unassigned) [Compound 1327] | 0.47 | – | – | – | 161 | 2.97 | – | – |
| COC(=O)Nc1ccc2oc([C@]3(CN4Cc5ccc(OC)cc5C4=O)NC(=O)NC3=O)cc2n1 [Compound 2474] | 0.52 | – | – | – | – | – | 549 | 15.5 |
| COc1ccc2c(c1)C(=O)N(C[C@@]1(c3cc4nc(Nc5cnccn5)ccc4o3)NC(=O)NC1=O)C2 [Compound 2129] | 0.395 | 750 | 1.33 | – | – | – | – | – |
| CCN1CCN(c2ccc3oc([C@]4(CN5Cc6ccc(OC)cc6C5=O)NC(=O)NC4=O)cc3n2)CC1 [Compound 2123] | 0.807 | 136 | 0.727 | – | – | – | – | – |
| COc1ccc2c(c1F)C(=O)N(C[C@@]1(c3cc4cc([C@@]5(C)NC(=O)NC5=O)c(F)cc4o3)NC(=O)NC1=O)C2 (single isomer, unassigned) [Compound 1326] | 0.63 | – | – | – | 156 | 1.04 | – | – |
| CCOC(=O)C1CCCN(c2ccc3oc([C@]4(CN5Cc6ccc(OC)cc6C5=O)NC(=O)NC4=O)cc3n2)C1 (stereo partly drawn) [Compound 1516] | 0.5 | – | – | – | 1740 | 0.041 | – | – |
| COc1ccc2c(c1)C(=O)N(C[C@@]1(c3cc4nc(Nc5cccnc5)ccc4o3)NC(=O)NC1=O)C2 [Compound 2130] | – | 163 | 0.072 | 0.629 | – | – | – | – |
| COc1ccc2c(c1)C(=O)N(C[C@@]1(c3cc4nc(N5CCOCC5)ccc4o3)NC(=O)NC1=O)C2 [Compound 2163] | 0.563 | 1120 | 3.64 | – | – | – | – | – |
| COc1ccc2c(c1F)C(=O)N(C[C@@]1(c3cc4c5c(ccc4o3)CNC5=O)NC(=O)NC1=O)C2 [Compound 2505] | 0.6 | – | – | – | – | – | 151 | 1.12 |
| COc1ccc2c(c1F)C(=O)N(C[C@@]1(c3cc4ncccc4o3)NC(=O)NC1=O)C2 [Compound 2203] | 0.468 | 200 | 3.92 | – | – | – | – | – |
| COc1ccc2c(c1F)C(=O)N(C[C@@]1(c3cc4cc(F)c5c(c4o3)CNC5=O)NC(=O)NC1=O)C2 [Compound 2501] | 0.86 | – | – | – | – | – | 148 | 0.448 |
| COc1ccc2c(c1F)C(=O)N(C[C@@]1(c3cc4ncc(F)cc4o3)NC(=O)NC1=O)C2 [Compound 1311] | 1.18 | – | – | – | 297 | 14.6 | – | – |
| COc1ccc2c(c1)C(=O)N(C[C@@]1(c3cc4nc(-n5cccn5)ccc4o3)NC(=O)NC1=O)C2 [Compound 2165] | – | 1370 | 21 | 0.405 | – | – | – | – |
| COc1ccc2c(c1)C(=O)N(C[C@@]1(c3cc4nc(N5CCC5=O)ccc4o3)NC(=O)NC1=O)C2 [Compound 2173] | 0.955 | 243 | 2.54 | – | – | – | – | – |
| COc1ccc2c(c1)C(=O)N(C[C@@]1(c3cc4cc(-c5ccc(O)cc5)ncc4o3)NC(=O)NC1=O)C2 [Compound 2243] | 0.427 | 753 | 0.027 | – | – | – | – | – |
| COc1ccc2c(c1)C(=O)N(C[C@@]1(c3cc4cc(C5(C)NC(=O)NC5=O)c(C)cc4o3)NC(=O)NC1=O)C2 (stereo partly drawn) [Compound 2207] | 0.813 | 310 | 0.063 | – | – | – | – | – |
